{"source": "paper PMC9506633", "about": "“Design, synthesis, anti-proliferative evaluation, docking, and MD simulations studies of new thiazolidine-2,4-diones targeting VEGFR-2 and apoptosis pathway” (PLoS ONE, 2022)", "key": {"[1]": {"experiment": "MTT anti-proliferative assay, Caco-2", "type": "cell-based", "settings": "African green monkey (Vero); human (Caco-2); SI = Cytotoxicity against Vero cells / Cytotoxicity against Caco-2 cell line; read-out: Selectivity index (Caco-2)", "description": "(§1) The cytotoxicity effects of the synthesized candidates were evaluated against A549, Caco-2, HepG2, and MDA-mb-231 cell lines. MTT assay method was applied using the sub-IC50 concentrations of each compound as the treatment dose. Doxorubicin was used as a reference molecule. […] Also, it was noticed that Caco-2 was the most sensitive cell line.\n(§2) The synthesized compounds were evaluated for their anti-proliferative activities against A549, Caco-2, HepG2, and MDA-mb-231 cell lines using the MTT assay protocol as described in S.1.2. Section in S1 File.\n(§3) Mammalian cell lines culture\n(§4) CaCo-2, and A549 cell lines were cultured on DMEM media, meanwhile MDA-MB-231 and hepG-2 cell line were cultured on RBMI media. The cultured media were supplemented with 200 mM L-glutamine, 10.0% fetal bovine serum (Lonza), and 1.0% penicillin/streptomycin. Cells were seeded into 25.0 cm tissue culture flasks and incubated at 37 ◦C in a 5.0% CO 2 incubator for 24 h or till confluency.\n(§5) The safety profiles of the tested compounds were checked on one non-cancerous cell line (Vero) to […]\n(§6) of 100.0 µl of 6×10^4 cell/ml cells was seeded in to each well of a 96-well plate and then the plates were incubated at 37 °C in a humidified 5.0% CO2 incubator for 24 h. At the end of incubation period, the exhausted medium was replaced with 100.0 µl of different concentrations of the designated treatment (prepared in RPMI medium starting from 1.0 mM). The inoculated plates were incubated at the same growth conditions for another 24 h. At the end of incubation, cellular viability was assessed using MTS assay kit (Promega) according to the manual instruction.\n(§7) S.1.2. In-vitro anticancer activity\n(§8) Anticancer activities of the tested compounds against CaCo-2, MDA-MB-231, and hepG-2 cell lines were quantified using MTS assay kit (Promega) as described by the Manufacturer. […]"}, "[2]": {"test_system": "Caco-2", "experiment": "MTT anti-proliferative assay, Caco-2", "type": "cell-based", "settings": "Homo sapiens; Caco-2 cell line, MTT; read-out: Anti-proliferative activity (IC50 μM) Caco2", "description": "as §1, §2, §3, §4, §5, §6, §7, §8"}, "[3]": {"test_system": "Bcl-2", "experiment": "RT-qPCR gene expression in Caco-2, Bcl-2", "type": "cell-based", "settings": "Caco-2, 1.5 μM, compared to control cells", "excerpt": "(§9) The molecular anticancer mode of action of 14a was investigated by screening their ability to control the gene expression levels of Bcl2, Bcl-xl, TGF and Survivin genes as reported in S.1.6. Section in S1 File.\n(§10) S.1.4. Selectivity index (SI) […]\n(§11) S.1.6. Gene expression pattern alt ernation of cancer cell after 1 4a treatment The molecular anticancer mode of action of 14a was investigated by screening their ability to affect the gene expression levels of Bcl2, Bcl -xl, TGF and Survivin genes using specific forward and reverse primers and RTq-PCR technique (Table 1) in CaCo-2 cells (chosen as the most sensitive cancer cell line). After cellular treatment, CaCo-2 cell line was cultured into 12 well plates (6×10^3 cell/ml) for 24 h. with the sub-IC50 concentration of 14a. After treatment, total RNA extraction was performed using RNA extraction kit (Qiagen, Germany). Then, 1 ug of the obtained RNA was used to synthesiz cDNA using cDNA synthesis kit (Promega Corp., Madison, WI) as recommended by the manufacturer. Simultaneously, GAPDH forward and reverse primers (Table 1) were used to amplify the house keeping gene as internal control for standardization of PCR products. The RTq-PCR was done using SYBR Green dye (QuantiTect SYBR Green PCR Kits) and Light Cycler fluorimeter (Bio-RAD S1000 Tm thermal cycler). […]"}, "[4]": {"test_system": "TGF", "experiment": "RT-qPCR gene expression in Caco-2, TGF", "type": "cell-based", "settings": "Caco-2, 1.5 μM, compared to control cells", "excerpt": "as §9, §10, §11"}, "[5]": {"test_system": "Caco-2 cells", "experiment": "In vitro scratch (wound healing, migration) assay", "type": "cell-based", "settings": "Caco-2, 1 μM", "description": "The in vitro scratch assay[38] was used to assess the prospective of compound 14a to inhibit the ability of Caco-2 cells to migrate and heal. The basic idea behind this test is to create a scratch in a cancer cell line monolayer, measure the diameter at the start time and at regular intervals to investigate the potential of the cancer cell to migrate and heal. The findings of the treated cell line are then compared to the untreated cell line.\nCell Migration assay was conducted according to the reported protocol as described [59]in S.1.5. Section in S1 File.\nS.1.4. Selectivity index (SI)\nThe selectivity index values of the tested compounds on cancer cells were calculated as described by Koch et al., with slight modifications; SI=IC50nc/IC50cc, where IC50nc: the IC50 value of the tested compound on normal cells and IC 50cc: IC50 of the tested compound on cancer cell line .\nS.1.5. Wound healing assay (Migration assay)\nCaCo-2 cells were grown to 95.0% confluency in a complete DMEM medium and then the wounds were formed using a plastic tip. […] After incubation at 37°C and 5.0% CO2 for 24h, the cells were washed with PBS and the wounds distance was determined as the scratch width of the treated and untreated groups using […]\nS.1.6. […] The RTq-PCR was done using SYBR Green dye (QuantiTect SYBR Green PCR Kits) and Light Cycler fluorimeter (Bio-RAD S1000 Tm thermal cycler). […]"}, "[6]": {"test_system": "MDA-mb-231", "experiment": "MTT anti-proliferative assay, MDA-mb-231", "type": "cell-based", "description": "as §1, §2, §3, §4, §5, §6, §7, §8"}, "[7]": {"experiment": "Safety assay: cytotoxicity against Vero non-cancer cell line", "type": "cell-based", "settings": "African green monkey, Vero cells (non-cancer cell line); Vero normal cell line", "description": "In this work, the safety pattern of the synthesized derivatives 10a, b and 14a-c was also evaluated by testing their in vitro cytotoxicity against Vero non-cancer cell line using the MTT assay protocol.\nSection in S1 File.\nMammalian cell lines culture […]\nThe cultured media were supplemented with 200 mM L-glutamine, 10.0% fetal bovine serum (Lonza), and 1.0% penicillin/streptomycin. Cells were seeded into 25.0 cm tissue culture flasks and incubated at 37 ◦C in a 5.0% CO 2 incubator for 24 h or till confluency.\nas §5\nof 100.0 µl of 6×10^4 cell/ml cells was seeded in to each well of a 96-well plate and then the plates were incubated at 37 °C in a humidified 5.0% CO2 incubator for 24 h. At the end of incubation period, the exhausted medium was replaced with 100.0 µl of different concentrations of the designated treatment (prepared in RPMI medium starting from 1.0 mM). The inoculated plates were incubated at the same growth conditions for another 24 h. At the end of incubation, cellular viability was assessed using MTS assay kit (Promega) according to the manual instruction. […]"}, "[8]": {"test_system": "Survivin", "experiment": "RT-qPCR gene expression in Caco-2, Survivin", "type": "cell-based", "settings": "Caco-2, 1.5 μM, compared to control cells", "excerpt": "as §9, §10, §11"}, "[9]": {"test_system": "HepG2", "experiment": "MTT anti-proliferative assay, HepG2", "type": "cell-based", "description": "as §1, §2, §3, §4, §5, §6, §7, §8"}, "[10]": {"test_system": "A549", "experiment": "MTT anti-proliferative assay, A549", "type": "cell-based", "description": "as §1, §2, §3, §4, §5, §6, §7, §8"}, "[11]": {"test_system": "Bcl-xl", "experiment": "RT-qPCR gene expression in Caco-2, Bcl-xl", "type": "cell-based", "settings": "Caco-2, 1.5 μM, compared to control cells", "excerpt": "as §9, §10, §11"}, "[12]": {"target": "T1, VEGFR-2 (Homo sapiens, UniProt P35968)", "T1 construct": "purchased", "T1 sequence (P35968 20-1356)": "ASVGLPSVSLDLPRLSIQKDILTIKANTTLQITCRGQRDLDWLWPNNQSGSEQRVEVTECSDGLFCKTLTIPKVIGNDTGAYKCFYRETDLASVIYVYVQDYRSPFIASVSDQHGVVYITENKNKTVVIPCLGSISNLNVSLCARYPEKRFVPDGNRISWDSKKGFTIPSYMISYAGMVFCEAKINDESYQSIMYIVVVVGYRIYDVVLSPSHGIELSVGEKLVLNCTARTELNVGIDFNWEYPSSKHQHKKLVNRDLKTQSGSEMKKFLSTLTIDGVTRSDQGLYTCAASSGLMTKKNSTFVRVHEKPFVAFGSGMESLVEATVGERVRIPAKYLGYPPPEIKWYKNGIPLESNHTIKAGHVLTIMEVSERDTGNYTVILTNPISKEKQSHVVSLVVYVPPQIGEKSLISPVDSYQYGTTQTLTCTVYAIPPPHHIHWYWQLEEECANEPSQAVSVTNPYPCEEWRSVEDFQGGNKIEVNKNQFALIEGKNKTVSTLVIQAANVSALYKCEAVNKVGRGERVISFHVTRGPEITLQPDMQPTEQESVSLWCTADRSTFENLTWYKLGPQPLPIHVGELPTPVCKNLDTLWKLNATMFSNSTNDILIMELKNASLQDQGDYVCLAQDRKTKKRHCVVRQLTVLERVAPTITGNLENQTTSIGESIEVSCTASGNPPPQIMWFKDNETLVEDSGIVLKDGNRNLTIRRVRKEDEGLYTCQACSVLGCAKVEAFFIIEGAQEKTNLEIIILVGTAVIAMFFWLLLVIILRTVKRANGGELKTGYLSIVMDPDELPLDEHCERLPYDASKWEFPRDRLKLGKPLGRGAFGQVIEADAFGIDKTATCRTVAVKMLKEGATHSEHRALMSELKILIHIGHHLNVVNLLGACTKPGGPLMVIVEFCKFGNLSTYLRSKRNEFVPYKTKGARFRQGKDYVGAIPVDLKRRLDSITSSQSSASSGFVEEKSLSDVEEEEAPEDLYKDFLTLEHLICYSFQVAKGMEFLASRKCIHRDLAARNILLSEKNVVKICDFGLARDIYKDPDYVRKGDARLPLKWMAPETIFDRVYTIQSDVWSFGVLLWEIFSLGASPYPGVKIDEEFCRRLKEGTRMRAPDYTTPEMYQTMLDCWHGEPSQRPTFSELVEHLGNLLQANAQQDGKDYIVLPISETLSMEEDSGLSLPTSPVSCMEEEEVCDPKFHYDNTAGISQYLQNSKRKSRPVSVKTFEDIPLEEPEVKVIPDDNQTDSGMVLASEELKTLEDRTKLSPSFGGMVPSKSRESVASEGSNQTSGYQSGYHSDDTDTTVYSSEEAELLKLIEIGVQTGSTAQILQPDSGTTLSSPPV", "experiment": "In vitro VEGFR-2 inhibition (VEGFR-2 ELISA kit)", "type": "biochemical", "description": "Compounds 10a, b and 14a-c were evaluated for their VEGFR-2inhibitory activity.\nVEGFR-2 ELISA kit was used in this test as described in S.1.3. Section in S1 File. […]\nS.1.3. In vitro VEGFR-2 kinase assay\nAll the synthesized compounds were tested for its inhibitory activity against VEGFR-2. Human VEGFR-2 ELISA kit (Enzyme-Linked Immunosorbent Assay) was utilized in this test. At first, specific antibody for VEGFR-2 was seeded on a 96-well plate and 100 μL of the standard solution or the tested compound was added, all were incubated at room temperature for 2.5 h. Then washed, 100 μL of the prepared biotin antibody was added, then incubated at room temperature for additional 1 h. and washed. Then, 100 μL of streptavidin solution was added and incubated for 45 min. at room temperature. Washed again, 100 μL of TMB Substrate reagent was added and incubated for 30 min. at room temperature. 50 μL of the stop solution was added, then read at 450 nm immediately. The standard curve was drawn, concentrations on the X-axis and the absorbance"}, "[13]": {"settings": "dose-response curve fit, raw data S.5"}}, "note": "“Also recorded” adds a separate entry of the source.", "data": [{"smiles": "O=C(CN1C(=O)SC(=C2C(=O)Nc3ccccc32)C1=O)Nc1ccc(Cl)cc1", "note": "[Compound 14a, N-(4-Chlorophenyl)-2-(2,4-dioxo-5-(2-oxoindolin-3-ylidene)thiazolidin-3-yl)acetamide]", "values": [{"measurement": "selectivity ratio", "setting": "[1]", "result": 212}, {"measurement": "IC50", "setting": "[2]", "result": "1.5 ± 0.08", "unit": "µM"}, {"measurement": "Bcl-2 gene expression level", "setting": "[3]", "result": "significant reduction; also recorded: significant down-regulation; also recorded: downregulate"}, {"measurement": "TGF gene expression level", "setting": "[4]", "result": "significant reduction; also recorded: significant down-regulation; also recorded: downregulate"}, {"measurement": "Inhibition of migration and healing of Caco-2 cells", "setting": "[5]; 24 h", "result": "inhibit the migration and healing of Caco-2 cells in a significant manner; also recorded: significantly inhibited the ability of cancer cells to migrate and heal"}, {"measurement": "Width of the scratch", "setting": "[5]; after 24 h, control scratch width at 0 hr 0.356 mm", "result": 0.293, "unit": "mm"}, {"measurement": "IC50", "setting": "[6]; Homo sapiens, MDA-mb-231 cell line, MTT", "result": "84 ± 7.3", "unit": "µM"}, {"measurement": "Selectivity index (MDA-MB-231)", "setting": "[6]; SI = Cytotoxicity against Vero cells / Cytotoxicity against MDA-MB-231 cell line", "result": 3.375}, {"measurement": "IC50 at 24 h", "setting": "[7]", "result": "290 ± 28.3", "unit": "µM"}, {"measurement": "Survivin gene expression level", "setting": "[8]", "result": "significant reduction; also recorded: significant down-regulation; also recorded: downregulate"}, {"measurement": "IC50", "setting": "[9]; Homo sapiens, HepG2 cell line, MTT", "result": "31.5 ± 2.5", "unit": "µM"}, {"measurement": "Selectivity index (HepG2)", "setting": "[9]; SI = Cytotoxicity against Vero cells / Cytotoxicity against HepG2 cell line", "result": 9.196}, {"measurement": "IC50", "setting": "[10]; Homo sapiens, A549 cell line, MTT", "result": "170 ± 14.5", "unit": "µM"}, {"measurement": "Selectivity index (A549)", "setting": "[10]; SI = Cytotoxicity against Vero cells / Cytotoxicity against A549 cell line", "result": 1.704}, {"measurement": "Bcl-xl gene expression level", "setting": "[11]", "result": "non-detectable change"}, {"measurement": "IC50", "setting": "[12]; ELISA kit", "result": "0.0915 ± 0.0082", "unit": "µM"}, {"measurement": "HillSlope (best-fit value)", "setting": "[12]; [13]", "result": -0.4675}, {"measurement": "LogIC50 (best-fit value)", "setting": "[12]; [13]", "result": "1.961 Log (nM)"}]}]}
